# Data as given in publication PMC12654037, “Norditerpene Natural Products from Subterranean Fungi with Anti-Parasitic Activity” (Microorganisms, 2025).
# Like-named read-outs stand apart in the source and are kept apart here.
# Tests used:
# C. parvum = C. parvum growth inhibition assay (Cp-NLuc-infected HCT-8 cells); type: cell-based, Cryptosporidium parvum; conditions: for EC50: Cryptosporidium parvum
# Method: C. parvum growth inhibition assays: The in vitro growth inhibition assay of C. parvum has been previously described. Briefly, clear-bottom, white-sided 96 well plates were seeded with HCT-8 cells. Once the cells reached between 50% and 75% confluency, they were infected with Cp-NLuc oocysts (10,000/well) in complete media containing 0.6% taurocholate. At 24 h post-infection (hpi), the infected cells were treated with compounds at various concentrations. DMSO was used as a vehicle control in parallel. Parasite growth was determined at 72 hpi by measuring relative luminescence units (RLUs) using Promega Nano-Glo substrate (Promega, Madison, WI, USA) and a SpectraMax® L Microplate Reader (Molecular Devices, San Jose, CA, USA). The percent inhibition of parasite growth was calculated as [(RLUDMSO − RLUcompound)/RLUDMSO] × 100.
# T. gondii = T. gondii growth inhibition assay (TgRH-Luc:GFP-infected HFF cells); type: cell-based; conditions: Toxoplasma gondii, 10 µM to 156 nM, Figure 2E
# Method: T. gondii growth inhibition assays: The T. gondii inhibition assay was described previously. Briefly, HFF cells were seeded onto white-sided, clear-bottom 96 well plates, grown to confluence, and then 5000 TgRH-Luc:GFP parasites were added to each well. At 24 hpi, compounds or DMSO were added. The growth of the parasites was determined by relative luminescence at 48 hpi using Promega Bright-Glo (Promega, Madison, WI, USA) substrate. Plates were read, and the percent inhibition of parasite growth was calculated as described above. Determination of -static versus -cidal activity was conducted as indicated above, with parasite growth quantified after 48 h of infection. Each sample was run in triplicate, and each experiment was repeated three times.
# [1] = tested on: G. lamblia WBC6 and CBG99 trophozoites; assay: Giardia lamblia trophozoite growth inhibition assay; type: cell-based; conditions: 72 h
# Method: Compound inhibition assay against Giardia lamblia WBC6 and CBG99 trophozoites: Biological replicates of growth inhibition assays were performed using wild-type G. lamblia WBC6 and G. lamblia CBG99 trophozoites at 37 °C under reduced oxygen conditions in a sealed 0.5 mL airtight sterile tube (USA Scientific, Ocala, FL, USA), following the susceptibility assay described below. G. lamblia trophozoites were grown in TYI-S-33 medium supplemented with 10% bovine serum and 0.05 mg/mL bovine bile, as previously described. A 3-fold serial concentration of pure compounds starting at 29 µM was screened against 75,000 cells/mL of parasites in modified TYI-S-33 medium with a final dimethyl sulfoxide (DMSO) concentration of 0.14%. Metronidazole was run in parallel at a final highest concentration of 66.7 µM and 3-fold subsequent serial dilutions. The untreated negative control contained 0.14% of DMSO. Sealable test tubes filled to its maximum volume of 700 µL were used to perform this assay. The test tubes were incubated at 37 °C for 72 h. After incubation, the tubes were chilled on ice, and the reaction was transferred to 96-well plates. In the plate, 50 µL of an ATP binding luminescence marker, CellTiter-Glo (Promega, Madison, WI, USA) or 10 µL of 2.5 mg/mL d-luciferin (GoldBio, St Louis, MO, USA) was added to each well and allowed to develop at room temperature for 10 min [31, 36]. The assay was read and analyzed using an EnVision Plate Reader (Perkin Elmer, Waltham, MA, USA). Response curves and EC50 values (the concentration at which 50% of G. lamblia trophozoite growth was inhibited) were calculated using GraphPad Prism (GraphPad, LaJolla, CA, USA).
# HCT-8 cytotoxicity assay = type: cell-based; conditions: human; sub-confluent (~40% confluency); read-out: EC50 cytotoxicity against sub-confluent HCT-8 cells
# Method: (§1) HCT-8 and HFF cytotoxicity assays: Cytotoxicity of the compounds was determined against both confluent (the conditions of the infection assays) and growing HCT-8 and HFF host cells, as previously described. Cells were seeded into white-sided, clear-bottom 96-well plates and grown to either 40% or 100% confluency. Compounds were added to cells at various concentrations up to 100 µM in a final DMSO concentration of 0.5%. DMSO was run in parallel as a vehicle control. After 48 h, the viability of the cells was determined by either quantification of cellular ATP (Cell-Titer Glo cell viability assay; Promega, Madison WI, USA) or by MTT assay. Viability was determined 24 h after compound addition to HFF cells or 48 h after compound addition to HCT-8 cells or HepG2 cells. The percent cell growth was then calculated with the following formula: % Cell Growth = [RLUcompound/RLUDMSO] × 100. Samples were run in triplicate with two to three biological replicates.
# HCT-8 cells = assay: HCT-8 cytotoxicity assay; type: cell-based
# Method: as §1
# HFF cells = assay: HFF cytotoxicity assay; type: cell-based
# Method: as §1
# HepG2 human hepatocytes = assay: HepG2 cytotoxicity assay (MTS); type: cell-based; conditions: 48 h, mean +/- SD
# Method: HepG2 cytotoxicity assay: Mammalian cell cytotoxicity was assessed in HepG2 human hepatocytes using an MTS 3-(4,5-dimethylthiazol-2-yl)-5-(3-carboxymethoxyphenyl)-2-(4-sulfophenyl)-2H-tetrazolium)-based cytotoxicity assay. For cytotoxicity testing, ∼2250 cells were seeded into each well of a 384-well microtiter plate and incubated for 24 h. Serial dilutions of the compounds were added in triplicate starting at 25 μM. Cells were further incubated for an additional 48 h at 37 °C in an atmosphere containing 5% CO2. Zero-growth control wells were incubated with 5% Triton X-100 for 5 min prior to MTS addition. Following the addition of MTS to all wells, the plates were incubated for an additional 4 h under the same environmental conditions before taking absorbance measurements. Absorbance values were recorded at 490 nm using a Synergy Neo2 multimode reader (BioTek), and values were normalized based on Triton X-100-lysed and no treatment controls. Samples were run in triplicate in each assay, and the experiments were repeated three times.
# HuF fibroblast cell line = conditions: cited from earlier work
# P. falciparum line Dd2 = assay: Plasmodium falciparum growth inhibition assay (SYBR Green I), Dd2
# Method: (§2) Plasmodium falciparum growth inhibition assay: Antiplasmodial EC50 results were determined using a fluorescence-based SYBR Green I assay performed using asynchronous cultures [30, 35]. […] Plates were subsequently frozen at −80 °C to facilitate lysis. […] Relative fluorescence units (RFUs) were normalized based on chloroquine-treated and no treatment controls. Serial dilutions of compounds were prepared in RPMI with final assay conditions of ≤0.2% DMSO. Each assay was conducted in triplicate with three biological replicates.
# P. falciparum 3D7 = assay: Plasmodium falciparum growth inhibition assay (SYBR Green I), 3D7; conditions: 3D7, 72 h, read-out: EC50 3D7(M)
# Method: as §2
compound,measurement,setting,value
"CO[C@H]1OC(=O)C=C2C1=C[C@H]1OC(=O)[C@@]3(C)CCC[C@@]2(C)[C@@H]13 [compound 7, oidiolactone B]",increase in inhibitory activity against C. parvum versus oidiolactone A,"C. parvum; 7,8 double bond vs. 7α,8α-epoxy group",2 fold
same,EC50,"C. parvum; HCT-8, abstract, read-out: EC50 against C. parvum",240 nM
same,EC50,"C. parvum; Cp-NLuc-infected HCT-8 cells, 7.5 µM to 117 nM, Figure 2E, read-out: C. parvum EC50",238 nM
same,EC50,T. gondii,580 nM
same,activity against G. lamblia (no activity up to),[1],> 29 µM
same,EC50 at 48 h,HCT-8 cytotoxicity assay,2100 nM
same,TC50 HCT-8 (confluent),HCT-8 cells; confluent,> 30000 nM
same,toxicity to host cells (no toxicity up to),"HCT-8 cells; confluent HCT-8, conditions of the infection assay, 48 h, cellular ATP",> 100 µM
same,more cytotoxic towards host HCT-8 cells versus oidiolactone A,HCT-8 cells; non-confluent conditions,~ 15 x
same,TC50 HCT-8 (sub-confluent),HCT-8 cells; sub-confluent,2100 ± 300 nM
same,TC50 HFF (confluent),HFF cells; confluent,> 30000 nM
same,toxicity to host cells (no toxicity up to),"HFF cells; confluent HFF, conditions of the infection assay, 24 h, cellular ATP",> 100 µM
same,cytotoxicity against sub-confluent HFF,HFF cells; sub-confluent,no cytotoxicity observed
same,TC50 HepG2,HepG2 human hepatocytes,10300 ± 2180 nM
same,cytotoxicity against human fibroblast,HuF fibroblast cell line,no cytotoxicity observed
same,TC50 HuF (sub-confluent),"HuF fibroblast cell line; sub-confluent, ref Rusman et al. 2020 [25]",21400 ± 900 nM
same,SI: selectivity index=EC50 HepG2/ EC50 compound,P. falciparum line Dd2,11
same,EC50,"P. falciparum line Dd2; Plasmodium falciparum, DD2, 72 h, read-out: EC50 Dd2 (M)",9.83e-07 ± 1.11e-07 M
same,EC50,P. falciparum 3D7,1.22e-06 ± 4.19e-07 M
